Holding throughout (format): cell-based
The target of one assay is T1, alpha 2B receptor (Homo sapiens, UniProt P18089).
T1 construct: expressed in transfected cells; host or cells: NIH-3T3 cells
T1 sequence (P18089 1-450): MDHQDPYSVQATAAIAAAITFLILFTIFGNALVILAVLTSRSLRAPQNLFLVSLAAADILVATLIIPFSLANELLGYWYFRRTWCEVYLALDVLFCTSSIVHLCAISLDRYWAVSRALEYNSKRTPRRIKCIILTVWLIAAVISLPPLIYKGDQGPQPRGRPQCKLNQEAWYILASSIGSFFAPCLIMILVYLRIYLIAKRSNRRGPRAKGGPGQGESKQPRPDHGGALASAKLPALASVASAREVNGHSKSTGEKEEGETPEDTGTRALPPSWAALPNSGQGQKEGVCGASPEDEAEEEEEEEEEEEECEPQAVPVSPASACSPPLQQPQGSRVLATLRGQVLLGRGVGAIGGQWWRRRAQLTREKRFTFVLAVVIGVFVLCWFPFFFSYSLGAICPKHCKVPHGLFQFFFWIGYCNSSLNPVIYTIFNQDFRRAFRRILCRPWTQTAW
In words: RSAT (Receptor Selection and Amplification Technology) assay, alpha 2B. Particulars: for Alpha 2B intrinsic activity (efficacy), value in parentheses: ratio of maximal effect to that of standard full agonist brimonidine (UK14304). On the procedure:
(§1) The RSAT assay measures a receptor-mediated loss of contact inhibition that results in selective proliferation of receptor-containing cells in a mixed population of confluent cells. The increase in cell number is assessed with an appropriate transfected marker gene such as β-galactosidase, the activity of which can be easily measured in a 96-well format. Receptors that activate the G protein, Gq, elicit this response. Alpha 2 receptors, which normally couple to Gi, activate the RSAT response when coexpressed with a hybrid Gq protein that has a Gi receptor recognition domain, called Gq/i5.
(§2) NIH-3T3 cells are plated at a density of 2×10^6 cells in 15 cm dishes and maintained in Dulbecco's modified Eagle's medium supplemented with 10% calf serum. One day later, cells are cotransfected by calcium phosphate precipitation with mammalian expression plasmids encoding p-SV-β-galactosidase (5-10 μg), receptor (1-2 μg) and G protein (1-2 μg). 40 μg salmon sperm DNA may also be included in the transfection mixture. Fresh media is added on the following day and 1-2 days later, cells are harvested and frozen in 50 assay aliquots. Cells are thawed and 100 μl added to 100 μl aliquots of various concentrations of drugs in triplicate in 96-well dishes. Incubations continue 72-96 hr at 37° C. After washing with phosphate-buffered saline, .E-backward.-galactosidase enzyme activity is determined by adding 200 μl of the chromogenic substrate (consisting of 3.5 mM o-nitrophenyl-beta-D-galactopyranoside and 0.5% nonidet P-40 in phosphate buffered saline), incubating overnight at 30° C. and measuring optical density at 420 nm. The absorbance is a measure of enzyme activity, which depends on cell number and reflects a receptor-mediated cell proliferation. The efficacy or intrinsic activity is calculated as a ratio of the maximal effect of the drug to the maximal effect of a standard full agonist for each receptor subtype. Brimonidine, also called UK14304, the chemical structure of which is shown below, is used as the standard agonist for the alpha 2A, alpha 2B and alpha 2C receptors.

For the next assay, the target named is T2, alpha 2A receptor (Homo sapiens, UniProt P08913).
T2 construct: expressed in transfected cells; host or cells: NIH-3T3 cells
T2 sequence (P08913 1-465): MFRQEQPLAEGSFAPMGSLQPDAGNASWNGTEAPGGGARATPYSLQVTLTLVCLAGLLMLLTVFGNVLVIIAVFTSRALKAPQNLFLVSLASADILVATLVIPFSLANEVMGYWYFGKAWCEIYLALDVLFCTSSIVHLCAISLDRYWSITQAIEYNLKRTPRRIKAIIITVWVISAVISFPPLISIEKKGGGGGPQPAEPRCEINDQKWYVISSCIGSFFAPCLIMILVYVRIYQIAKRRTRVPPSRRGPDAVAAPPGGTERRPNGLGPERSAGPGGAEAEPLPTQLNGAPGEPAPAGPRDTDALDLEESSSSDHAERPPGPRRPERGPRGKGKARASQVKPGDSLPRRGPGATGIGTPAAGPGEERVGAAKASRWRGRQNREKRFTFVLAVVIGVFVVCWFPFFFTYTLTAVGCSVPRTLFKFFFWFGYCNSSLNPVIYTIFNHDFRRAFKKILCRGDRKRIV
In words: RSAT (Receptor Selection and Amplification Technology) assay, alpha 2A. As to conditions: NIH-3T3 cells cotransfected with receptor and Gq/i5; ratio of maximal effect to that of standard full agonist brimonidine (UK14304).
Description: The compounds disclosed herein are agonists of alpha 2B/2C adrenergic receptors. […] 76, pp. 308-311 (incorporated herein by reference) and is also described below. Another reference pertinent to this assay is Conklin et al. (1993) Nature 363: 274-6, also incorporated herein by reference.
as §1, §2

The next assay addresses T3, alpha 2C receptor (Homo sapiens, UniProt P18825).
T3 construct: expressed in transfected cells; host or cells: NIH-3T3 cells
T3 sequence (P18825 1-462): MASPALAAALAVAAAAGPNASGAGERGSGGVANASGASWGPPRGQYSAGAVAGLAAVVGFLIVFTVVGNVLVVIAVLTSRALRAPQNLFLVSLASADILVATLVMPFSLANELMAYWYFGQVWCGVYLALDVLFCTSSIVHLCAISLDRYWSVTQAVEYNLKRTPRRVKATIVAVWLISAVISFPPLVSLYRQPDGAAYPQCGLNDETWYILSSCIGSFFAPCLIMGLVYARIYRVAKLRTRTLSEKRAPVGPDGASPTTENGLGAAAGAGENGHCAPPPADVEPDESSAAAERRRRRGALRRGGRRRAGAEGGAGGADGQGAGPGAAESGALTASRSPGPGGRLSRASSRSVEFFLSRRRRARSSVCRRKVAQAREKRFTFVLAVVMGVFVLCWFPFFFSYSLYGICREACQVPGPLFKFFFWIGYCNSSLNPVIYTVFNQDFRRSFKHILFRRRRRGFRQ
The assay is described as follows: RSAT (Receptor Selection and Amplification Technology) assay, alpha 2C. Particulars: for Alpha 2C intrinsic activity (efficacy), value in parentheses: ratio of maximal effect to that of standard full agonist brimonidine (UK14304). On the procedure: as §1, §2

Setting [1] is: NIH-3T3 cells cotransfected with receptor and Gq/i5.
The mark [2] stands for this setting: NIH-3T3 cells cotransfected with receptor and Gq/i5, read-out: Alpha 2B potency nM (EC50).

The results in this text go back to patent US8735438B2, “Substituted-aryl-2-phenylethyl-1H-imidazole compounds as subtype selective modulators of alpha 2B and/or alpha 2C adrenergic receptors” (Allergan, Inc., priority 2008, dated 2014).

For orientation: EC50 means the concentration giving half of the maximal effect.

Like-named read-outs stand apart in the source and are kept apart here.

On alpha 2B receptor, `Clc1cccc(/C(=C/c2ccccc2)c2c[nH]cn2)c1` displayed an EC50 of 7.8 nM. Further, the “Alpha 2B intrinsic activity (efficacy), value in parentheses” value (“Alpha 2B intrinsic activity (efficacy)” below) at alpha 2B receptor (setting [1]) is “.80”. For the same compound, the “Alpha 2A intrinsic activity (efficacy), value in parentheses” value (shortened to “Alpha 2A intrinsic activity (efficacy)”) on alpha 2A receptor is reported as “No Data (.09)”. Besides, the “Alpha 2C intrinsic activity (efficacy), value in parentheses” value (“Alpha 2C intrinsic activity (efficacy)” for short) on alpha 2C receptor (setting [1]) is reported as “No Data (.19)”.

Take `c1ccc(CC(c2ccncc2)c2c[nH]cn2)cc1` (stereo not shown): the midpoint of the response at alpha 2B receptor, the EC50, lay at 66 nM. Besides, the “Alpha 2B intrinsic activity (efficacy)” value at alpha 2B receptor (setting [1]) was “.74”. Also, on alpha 2A receptor, the “Alpha 2A intrinsic activity (efficacy)” value is “No Data (.02)”. Moreover, on alpha 2C receptor (setting [1]), the “Alpha 2C intrinsic activity (efficacy)” value is “No Data (.09)”.

As to `Fc1ccccc1C(Cc1ccccc1)c1c[nH]cn1` (stereo not shown), a half-maximal response at alpha 2B receptor (EC50) required 3.5 nM. At alpha 2B receptor (setting [1]), the “Alpha 2B intrinsic activity (efficacy)” value is “.43”. Further, the “Alpha 2A intrinsic activity (efficacy)” value on alpha 2A receptor was “No Data (.04)”. Moreover, at alpha 2C receptor (setting [1]), the “Alpha 2C intrinsic activity (efficacy)” value was “No Data (.18)”.

As to `Clc1cccc(C(Cc2ccccc2)c2c[nH]cn2)c1Cl` (stereo not shown), the “Alpha 2B intrinsic activity (efficacy)” value on alpha 2B receptor (setting [1]) is reported as “.97”. For the same compound, the EC50 worked out at 8.4 nM at alpha 2B receptor (setting [2]); 41 nM at alpha 2C receptor (NIH-3T3 cells cotransfected with receptor and Gq/i5, read-out: Alpha 2C potency nM (EC50)). The “Alpha 2A intrinsic activity (efficacy)” value at alpha 2A receptor is “No Data (.21)”. At alpha 2C receptor (setting [1]), the “Alpha 2C intrinsic activity (efficacy)” value is reported as “.41”.

With `Cc1ccccc1C(Cc1ccccc1)c1c[nH]cn1` (stereo not shown), the “Alpha 2B intrinsic activity (efficacy)” value at alpha 2B receptor (setting [1]) was “.69”. For the same compound, the EC50 at alpha 2B receptor (setting [2]) turned out to be 101 nM. For the same compound, on alpha 2A receptor, the “Alpha 2A intrinsic activity (efficacy)” value is “No Data (.10)”. Besides, the “Alpha 2C intrinsic activity (efficacy)” value on alpha 2C receptor (setting [1]) is listed as “No Data (.21)”.

In the case of `c1ccc(CC(c2ccccc2)c2c[nH]cn2)cc1` (stereo not shown), the response on alpha 2B receptor was half-maximal at 2.8 nM (EC50). In addition, at alpha 2B receptor (setting [1]), the “Alpha 2B intrinsic activity (efficacy)” value is given as “.69”. Besides, on alpha 2A receptor, the “Alpha 2A intrinsic activity (efficacy)” value was “No Data (.05)”. In addition, the “Alpha 2C intrinsic activity (efficacy)” value on alpha 2C receptor (setting [1]) is given as “No Data (.10)”.

Turning to `Fc1cccc(C(Cc2ccccc2)c2c[nH]cn2)c1F` (stereo not shown), the “Alpha 2B intrinsic activity (efficacy)” value at alpha 2B receptor (setting [1]) is “.53”. Also, the EC50 at alpha 2B receptor (setting [2]) stood at 4.4 nM. In addition, on alpha 2A receptor, the “Alpha 2A intrinsic activity (efficacy)” value is “No Data (.04)”. Further, the “Alpha 2C intrinsic activity (efficacy)” value at alpha 2C receptor (setting [1]) is on record as “No Data (.17)”.

In the case of `Cc1cccc(C(Cc2ccccc2)c2c[nH]cn2)c1C` (stereo not shown), the EC50 turned out to be 2.09 nM on alpha 2B receptor and 26 nM on alpha 2C receptor. Also, on alpha 2B receptor (setting [1]), the “Alpha 2B intrinsic activity (efficacy)” value is recorded as 1.01. Moreover, at alpha 2A receptor, the “Alpha 2A intrinsic activity (efficacy)” value was “No Data (.28)”. The “Alpha 2C intrinsic activity (efficacy)” value on alpha 2C receptor (setting [1]) is listed as “.36”.
